Test results: patent US11154057B2, “Use of nootkatone to treat mosquito infestations” (EVOLVA SA, priority 2016, dated 2021)

Experiments:
Type in all cases: in vivo
3rd/4th instar larvae = test: Duration of protection from larvae, Method 1: daily addition of new larval cohorts to treated beakers (Example No. 4)
Procedure: Method 1: Clean, glass 600 mL beakers were set up as test containers (such that the surface area of water to be treated was 54 cm^2), and were treated with 1 mL of 3% nootkatone in ethanol (v/v), or 1 mL of ethanol alone, as in Example No. 1, to achieve a final concentration of 0.03% nootkatone (v/v). After 24 hours, 100% of larvae were dead in the treated beakers, but 100% were alive in the control beakers, as in Example No. 1. An additional cohort of 25 larvae was added to each treatment beaker in the smallest practical volume of additional water, estimated at 1 mL per beaker. After an additional 24 hours, total live and dead larvae were counted and recorded. Testing continued by addition of new larval cohorts (25 per beaker, per day) for additional 24 hour periods until either there were no available 3rd/4th instar larvae, or until the rate of larval killing decreased.
In two replicate experiments, larvae cohorts were added to test containers in the presence of 0.03% nootkatone, 1% ethanol, starting 24 to 72 hours after addition of nootkatone and ethanol to the test containers (see FIGS. 5 and 6). In the second experiment, additional additional larval replicates were added simultaneously to test containers in the presence of 0.01% nootkatone, 1% ethanol (see FIG. 6).
In a separate experiment with the same experimental set-up, test containers were inoculated with nootkatone in ethanol 48 hours prior to addition of larvae (see FIG. 7). In these experiments, 100% of larvae were killed within 24 hours up to a week after nootkatone treatment. One week after addition of nootkatone, larval mortality was still at 94%.

[1] = system: 3rd and 4th instar larvae; test: Duration of protection from larvae, Method 2: individual pre-treated beakers used once (Example No. 4); conditions: for larvae mortality rates: through one week of treatment
Procedure: Method 2: Clean, glass 600 mL beakers were set up as test containers (such that the surface area of water to be treated was 54 cm^2), and were treated with 1 mL of 1% or 3% nootkatone in ethanol (v/v), or 1 mL of ethanol alone, to achieve a final concentration of 0.01% or 0.03% nootkatone (v/v), respectively. Beakers were lightly covered with Kimwipes to prevent contamination, and to reduce evaporation. Beakers treated with 1 mL of 100% ethanol were used as controls. Four cohorts of 25 3rd and 4th instar larvae were added to individual beakers per day, 3-14 days after treatment with nootkatone, and mortality of larvae was recorded 24 and 48 hours after addition of larvae to beakers.
For the experimental data shown in FIGS. 5-7, the method used included addition and removal of water, and potentially, removal of nootkatone, on each succeeding day. In a new experiment, individual beakers were set up in advance, so that all beakers were used one and only one time to test the longevity of nootkatone, with the only possible loss due to evaporation.
In a separate experiment using the same setup, nootkatone-treated beakers were held for two weeks prior to addition of larvae. Due to the extended time delay, more than 50% of the original liquid volume had evaporated. To avoid having a potentially higher concentration of nootkatone than the desired 0.03%, sterile water was added to bring the total volume back to 100 mL before larval cohorts were added.

Aedes aegypti larvae [2] = test: Larval bioassay comparing nootkatone with soy oil and mineral oil (Example No. 2); conditions: FIG. 3
Text: This example describes a laboratory bioassay in which groups of mosquito larvae were exposed to compositions that contain oils, but not nootkatone, to determine whether larval mortality was due to suffocation by oils in general, or due to a specific property of nootkatone.
One milliliter of a solution of oil in ethanol was applied directly to 100 milliliters of water containing larvae, using a micropipette. One treatment condition used 3% (v/v) soybean oil in ethanol, and a second treatment condition used 3% (v/v) mineral oil in ethanol, for final concentrations of 0.03% (v/v), respectively. One milliliter of pure ethanol was used as a control, and 0.03% (v/v) nootkatone in ethanol was included as a comparison of efficacy. Two replicates of 25 larvae were tested per treatment in clean, glass 600 mL beakers.
Readings were discontinued if treated mortality reached 100%, or control mortality exceeded 20%.

Aedes aegypti larvae [3] = test: Nootkatone crystals dropped onto the water surface as larvicide (Example No. 9, Treatment 3); conditions: for Alive / Dead / KD: 30 mg NK crystals in 100 mL water
Procedure: In this example, nootkatone-containing compositions were evaluated for their ability to act as a larvicide by coating a water surface. Mixed sex 3rd and 4th instar Aedes aegypti larvae (Yellow fever mosquito) were tested.
Standard storage conditions for nootkatone crystals is 4° C., therefore, the ability of crystals to coat a water surface without first liquifying them was tested. 30 mg of 98% pure nootkatone crystals was weighed and gently dropped onto the surface of 100 mL of water in a 600 mL clean, glass beaker containing 10 mixed sex 3rd and 4th instar Aedes aegypti larvae (3 replicates). Three control replicates of 10 larvae each were placed in identical beakers of 100 mL of water, but without nootkatone. All beakers were provided with finely ground fish food, and they were maintained at room temperature (˜72° F.).

[4] = 30 mg nootkatone crystals, at 27 hours

Question: With `C=C(C)[C@@H]1CCC2=CC(=O)C[C@@H](C)[C@]2(C)C1` [Nootkatone, nootkatone] as the molecule, how does the mortality rate (3rd/4th instar larvae; 0.01% nootkatone (v/v), 72 hours after application, FIG. 6) read?
Answer: The mortality rate was “about 10%”.

Question: What about the mortality (3rd/4th instar larvae; 0.01% nootkatone (v/v), larvae added after application, through 48 hours, FIG. 6) of the same molecule?
Answer: Its mortality is 100%.

Question: What about the larvae dead (3rd/4th instar larvae; 0.03% nootkatone (v/v), after 24 hours, first cohort) of the same molecule?
Answer: Its larvae dead is 100%.

Question: And the mortality (3rd/4th instar larvae; 0.03% nootkatone (v/v), larvae added 0, 24, 48, and 78 hours after application, FIG. 5)?
Answer: The mortality was 100%.

Question: What about the mortality (3rd/4th instar larvae; 0.03% nootkatone (v/v), larvae added after application, through 48 hours, FIG. 6) of the same molecule?
Answer: The mortality was 100%.

Question: What about the mortality (3rd/4th instar larvae; 0.03% nootkatone (v/v), through 72 hours after application, FIG. 6) of the same molecule?
Answer: The mortality was 100%.

Question: What about the mortality rates (3rd/4th instar larvae; 0.03% nootkatone (v/v), through one week of treatment, FIG. 7) of the same molecule?
Answer: Its mortality rates is “greater than 90%”.

Question: What about the “larvae killed within 24 hours” value (3rd/4th instar larvae; 0.03% nootkatone, containers inoculated 48 hours prior to larvae, up to a week after nootkatone treatment, FIG. 7) of the same molecule?
Answer: The value was 100%.

Question: And the larval mortality (3rd/4th instar larvae; 0.03% nootkatone, one week after addition of nootkatone, FIG. 7)?
Answer: Its larval mortality is 94%.

Question: What about the larvae mortality rates ([1]; 0.01% nootkatone (v/v), twenty-four hours of exposure, FIG. 8) of the same molecule?
Answer: The larvae mortality rates was “over 80%”.

Question: What about the “killing at 24 hours” value ([1]; 0.01% nootkatone, larvae added 3 days after water treatment, FIG. 8) of the same molecule?
Answer: The value was 98%.

Question: What about the “killing at 24 hours” value ([1]; 0.01% nootkatone, larvae added 7 days after water treatment, FIG. 8) of the same molecule?
Answer: The value was 81%.

Question: What about the larval mortality ([1]; 0.01% nootkatone, scored 48 hours after addition of larvae, 3-7 days after water treatment, FIG. 9) of the same molecule?
Answer: Its larval mortality is 100%.

Question: What about the nootkatone killing duration ([1]; 0.03% concentration) of the same molecule?
Answer: Its nootkatone killing duration is “at least two weeks”.

Question: And the “larvae killed within 24 hours” value ([1]; 0.03% nootkatone, beakers held two weeks before larvae, volume restored to 100 mL, FIG. 10)?
Answer: Its value is 100%.

Question: What about the larvae mortality rates ([1]; 0.03% nootkatone, forty-eight hours of exposure, FIG. 9) of the same molecule?
Answer: Its larvae mortality rates is 100%.

Question: What about the “larvae killed within 24 hours” value ([1]; 0.03% nootkatone, larvae added 3-7 days after water treatment, FIG. 8) of the same molecule?
Answer: The value was 100%.

Question: And the larvae killed (Aedes aegypti larvae [2]; 0.03% (v/v) final in water with ethanol, in 24 hours, two replicates of 25 larvae)?
Answer: Its larvae killed is 100%.

Question: And the “effectiveness of killing larvae versus soy oil and mineral oil” value (Aedes aegypti larvae [2]; 0.03% (v/v), after 24 hr treatment)?
Answer: The value was “more effective than either soy oil or mineral oil”.

Question: And the Alive (Aedes aegypti larvae [3]; 1 hr)?
Answer: The Alive was 100%.

Question: And the Dead (Aedes aegypti larvae [3]; 1 hr)?
Answer: Its Dead is 0%.

Question: And the KD (Aedes aegypti larvae [3]; 1 hr)?
Answer: The KD was 0%.

Question: What about the Alive (Aedes aegypti larvae [3]; 27 hr) of the same molecule?
Answer: The Alive was 53%.

Question: And the Dead (Aedes aegypti larvae [3]; 27 hr)?
Answer: The Dead was 7%.

Question: What about the KD (Aedes aegypti larvae [3]; 27 hr) of the same molecule?
Answer: Its KD is 40%.

Question: And the Alive (Aedes aegypti larvae [3]; 54 hr)?
Answer: The Alive was 3%.

Question: And the Dead (Aedes aegypti larvae [3]; 54 hr)?
Answer: The Dead was 70%.

Question: And the KD (Aedes aegypti larvae [3]; 54 hr)?
Answer: The KD was 27%.

Question: And the Alive (Aedes aegypti larvae [3]; 77.5 hr)?
Answer: The Alive was 0%.

Question: And the Dead (Aedes aegypti larvae [3]; 77.5 hr)?
Answer: Its Dead is 97%.

Question: What about the KD (Aedes aegypti larvae [3]; 77.5 hr) of the same molecule?
Answer: Its KD is 3%.

Question: And the killing (Aedes aegypti larvae [3]; 30 mg nootkatone crystals, after more than 3 days)?
Answer: Its killing is “below 100%”.

Question: And the “larvae alive (unaffected plus affected)” value (Aedes aegypti larvae [3]; [4])?
Answer: The value was 93%.

Question: And the “larvae that appeared to be unaffected” value (Aedes aegypti larvae [3]; [4])?
Answer: Its value is ~50%.
